In ChEMBL document CHEMBL1143512, “Antitubercular agents. Part 2: new thiolactomycin analogues active against Mycobacterium tuberculosis” (2005):
Converted amounts (≈) assume the structure as drawn.

Tested on: Mycobacterium tuberculosis
Assay: Minimum inhibitory concentration against Mycobacterium tuberculosis resistant clinical isolates; Range: 1-4 ug/ml
Format: functional

SMILES | MIC [µg/mL]
COC(=O)CSCCCCCCCCOC1=C(C)C(=O)SC1C (stereo not given) | 4 (≈ 11.1 µM)

Tested on: Mycobacterium tuberculosis
Assay: Minimum inhibitory concentration against Mycobacterium tuberculosis resistant clinical isolates; Range:4-16 ug/ml
Format: functional

SMILES | MIC [µg/mL]
CC1=C(OCCCCCCCCCCBr)C(C)SC1=O (stereo not given) | 16 (≈ 44 µM)

Tested on: Mycobacterium tuberculosis
Assay: Minimum inhibitory concentration against Mycobacterium tuberculosis resistant clinical isolates
Format: functional

SMILES | MIC [µg/mL]
CC1=C(OCCCCN2CCOCC2)C(C)SC1=O (stereo not given) | > 16
CC1=C(OCCCCCN2CCOCC2)C(C)SC1=O (stereo not given) | > 16
COC(=O)CSCCCOC1=C(C)C(=O)SC1C (stereo not given) | > 16
COC(=O)CSCCCCCOC1=C(C)C(=O)SC1C (stereo not given) | > 16
CC1=C(OCCCCCCCCBr)C(C)SC1=O (stereo not given) | > 16
CC1=C(OCCCCCCBr)C(C)SC1=O (stereo not given) | > 16
CC1=C(OCCCCCCCCN2CCOCC2)C(C)SC1=O (stereo not given) | > 16
CC1=C(OCCCCCCCCCCN2CCN(C)CC2)C(C)SC1=O (stereo not given) | > 16
CC1=C(OCCCCN2CCN(C)CC2)C(C)SC1=O (stereo not given) | > 16
CC1=C(OCCCBr)C(C)SC1=O (stereo not given) | > 16
CC1=C(OCCCN2CCN(C)CC2)C(C)SC1=O (stereo not given) | > 16
CC1=C(OCCCCCBr)C(C)SC1=O (stereo not given) | > 16
COC(=O)CSCCCCOC1=C(C)C(=O)SC1C (stereo not given) | > 16
COC(=O)CSCCCCCCOC1=C(C)C(=O)SC1C (stereo not given) | > 16
CC1=C(OCCCCCN2CCN(C)CC2)C(C)SC1=O (stereo not given) | > 16
CC1=C(OCCCCBr)C(C)SC1=O (stereo not given) | > 16
CC1=C(OCCCCCCCCN2CCN(C)CC2)C(C)SC1=O (stereo not given) | > 16
CC1=C(OCCCCCCN2CCN(C)CC2)C(C)SC1=O (stereo not given) | > 16
CC1=C(OCCCCCCN2CCOCC2)C(C)SC1=O (stereo not given) | > 16
CC1=C(OCCCCCCCCCCN2CCOCC2)C(C)SC1=O (stereo not given) | > 16
COC(=O)CSCCCCCCCCCCOC1=C(C)C(=O)SC1C (stereo not given) | > 16
CC1=C(OCCCN2CCOCC2)C(C)SC1=O (stereo not given) | > 16

Tested on: Mycobacterium tuberculosis
Assay: Minimum inhibitory concentration against Mycobacterium tuberculosis resistant clinical isolates; Range: 8->16 ug/ml
Format: functional

SMILES | MIC [µg/mL]
NNC(=O)c1ccncc1 [ISONIAZID] | > 16
